PMC8795568 (Proceedings of the National Academy of Sciences of the …, 2022)

Assays:
several solid tumors = details: trial terminated; cited from earlier work
[1] = system: midline nuclear protein in testis (NUT) carcinoma; details: phase IIb trial, closed; ref NCT02296476; cited from earlier work
Panc1 cells = assay: Cell growth assay; assay type: cell-based, human; details: Panc1, 1 μM each drug, until DMSO cells reached 100% confluence
[2] = clinical; cited from earlier work
[3] = system: NUT midline carcinoma and other solid cancers; details: patients, cited from earlier work

In the case of `CNC(=O)N1N=C(c2ccc(N3CCN(C)CC3)cc2)c2cc(OC)c(OC)cc2C[C@@H]1C` [BAY1238097], the dose-limiting toxicities (several solid tumors) is listed as “high rates of dose-limiting toxicities at subtherapeutic doses”.

For `Cc1sc2c(c1C)C(c1ccc(Cl)cc1)=N[C@@H](CC(=O)Nc1ccc(O)cc1)c1nnc(C)n1-2` [MK-8628], the clinical activity [1] is given as “lack of detectable clinical activity”.

With `COc1ccc(CCc2nc3cc(-c4c(C)noc4C)ccc3n2C[C@H](C)N2CCOCC2)cc1Cl` [SGC-CBP30] the “cell growth (confluence)” value (Panc1 cells) was “marginal effect on cell growth”.

In the case of `COc1cc(OC)c2c(=O)[nH]c(-c3cc(C)c(OCCO)c(C)c3)nc2c1` [RVX000222], the safety [2] is listed as “improved safety threshold”.

In the case of `CCNC(=O)C[C@@H]1N=C(c2ccc(Cl)cc2)c2cc(OC)ccc2-n2c(C)nnc21` [GSK525762], the rate of nausea ([3]; adverse effects) is given as 40%, the rate of thrombocytopenia ([3]; adverse effects) is given as 44% and the partial responses [3] is given as 2 out of 10.
